pIC50, pKi: −log10 of the molar value. Activity calls are given as the source filed them. The calls are words filed in the database; no cut-off is given here.
Target: T1, Aminopeptidase N (Mus musculus, UniProt P97449)
T1 sequence (P97449 whole entry): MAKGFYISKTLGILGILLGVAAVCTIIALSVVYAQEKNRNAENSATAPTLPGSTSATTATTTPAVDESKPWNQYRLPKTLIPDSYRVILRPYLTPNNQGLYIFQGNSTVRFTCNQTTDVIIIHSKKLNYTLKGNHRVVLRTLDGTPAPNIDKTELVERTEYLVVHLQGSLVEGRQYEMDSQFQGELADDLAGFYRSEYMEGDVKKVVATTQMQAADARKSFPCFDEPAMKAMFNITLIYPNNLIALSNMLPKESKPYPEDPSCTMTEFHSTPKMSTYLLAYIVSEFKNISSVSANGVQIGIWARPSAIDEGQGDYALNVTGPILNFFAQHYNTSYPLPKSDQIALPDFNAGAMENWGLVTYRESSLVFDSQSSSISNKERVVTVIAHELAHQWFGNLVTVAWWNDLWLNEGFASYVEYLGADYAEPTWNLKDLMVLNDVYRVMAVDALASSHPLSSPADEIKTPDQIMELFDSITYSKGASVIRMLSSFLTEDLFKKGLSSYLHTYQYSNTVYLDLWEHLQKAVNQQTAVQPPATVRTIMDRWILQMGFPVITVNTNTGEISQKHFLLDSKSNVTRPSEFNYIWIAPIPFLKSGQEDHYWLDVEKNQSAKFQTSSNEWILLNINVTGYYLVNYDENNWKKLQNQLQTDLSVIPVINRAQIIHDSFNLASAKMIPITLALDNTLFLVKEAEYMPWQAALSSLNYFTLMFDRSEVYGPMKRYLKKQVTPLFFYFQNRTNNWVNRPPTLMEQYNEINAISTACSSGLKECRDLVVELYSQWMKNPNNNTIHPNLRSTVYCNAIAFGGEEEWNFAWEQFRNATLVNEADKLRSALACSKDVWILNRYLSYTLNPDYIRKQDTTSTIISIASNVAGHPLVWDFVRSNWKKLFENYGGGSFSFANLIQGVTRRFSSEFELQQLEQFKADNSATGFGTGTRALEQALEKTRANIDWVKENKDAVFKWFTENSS
Test: Inhibition of APN in mouse B16-BL6 cell surface assessed as inhibition of L-Leu-p-nitroanilide substrate hydrolysis incubated for 5 mins before substrate addition by UV-Vis spectrophotometric analysis
Details: not given

Row | pIC50 | Compound
1 | 5.65 | CC(C)C[C@H](NC(=O)Nc1cccc2ccccc12)C(=O)NO
2 | 5.74 | CC(C)C[C@H](NC(=O)NCc1cccc2ccccc12)C(=O)NO
3 | 4.63 | CC(C)C[C@H](NC(=O)[C@@H](O)[C@H](N)Cc1ccccc1)C(=O)O [UBENIMEX]
4 | 5.25 | COc1cccc(CNC(=O)N[C@@H](CC(C)C)C(=O)NO)c1

System: HUVEC
Test: Antiangiogenesis activity against HUVEC assessed as decrease in capillary tubular structure formation at 25 ug/ml after 8 hrs by microscopic analysis
Type: functional, cell-based
Details: Homo sapiens

Row | Compound | Activity
5 | CC(C)C[C@H](NC(=O)Nc1cccc2ccccc12)C(=O)NO | Active
6 | CC(C)C[C@H](NC(=O)NCc1cccc2ccccc12)C(=O)NO | Active
7 | CC(C)C[C@H](NC(=O)[C@@H](O)[C@H](N)Cc1ccccc1)C(=O)O [UBENIMEX] | Active
8 | COc1cccc(CNC(=O)N[C@@H](CC(C)C)C(=O)NO)c1 | Active

Target: T2, Aminopeptidase N (Sus scrofa, UniProt P15145)
T2 sequence (P15145 whole entry): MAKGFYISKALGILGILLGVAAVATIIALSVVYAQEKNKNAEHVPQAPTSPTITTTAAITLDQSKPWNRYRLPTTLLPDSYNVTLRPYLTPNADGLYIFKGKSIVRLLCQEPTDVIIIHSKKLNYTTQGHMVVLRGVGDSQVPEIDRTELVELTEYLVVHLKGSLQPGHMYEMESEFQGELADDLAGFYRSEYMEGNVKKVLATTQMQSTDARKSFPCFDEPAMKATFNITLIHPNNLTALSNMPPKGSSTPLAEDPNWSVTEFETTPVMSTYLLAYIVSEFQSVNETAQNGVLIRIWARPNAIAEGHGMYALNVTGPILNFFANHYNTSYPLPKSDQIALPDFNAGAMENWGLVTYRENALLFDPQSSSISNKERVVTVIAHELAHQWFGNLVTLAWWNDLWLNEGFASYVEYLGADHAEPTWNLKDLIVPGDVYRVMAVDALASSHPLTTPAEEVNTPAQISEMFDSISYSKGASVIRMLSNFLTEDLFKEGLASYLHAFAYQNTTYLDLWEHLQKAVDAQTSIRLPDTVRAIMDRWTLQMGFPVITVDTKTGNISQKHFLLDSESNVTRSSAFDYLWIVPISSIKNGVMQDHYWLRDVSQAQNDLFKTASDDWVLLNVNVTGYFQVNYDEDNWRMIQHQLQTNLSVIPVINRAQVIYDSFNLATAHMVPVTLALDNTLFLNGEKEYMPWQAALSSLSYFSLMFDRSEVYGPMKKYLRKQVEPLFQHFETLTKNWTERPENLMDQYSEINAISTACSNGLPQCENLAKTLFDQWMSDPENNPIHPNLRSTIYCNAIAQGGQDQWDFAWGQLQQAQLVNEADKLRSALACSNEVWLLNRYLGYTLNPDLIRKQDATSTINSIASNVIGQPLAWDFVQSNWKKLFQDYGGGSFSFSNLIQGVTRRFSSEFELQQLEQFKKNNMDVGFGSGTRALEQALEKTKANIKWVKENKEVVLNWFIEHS
Test: Inhibition of APN in porcine kidney microsome assessed as inhibition of L-Leu-p-nitroanilide substrate hydrolysis incubated for 5 mins before substrate addition by UV-Vis spectrophotometric analysis
Type: microsomes
Details: not given

Row | Compound | pIC50
9 | O=C(NCCCCc1ccccc1)N[C@@H](Cc1ccccc1)C(=O)NO | 5.55
10 | COc1ccc(CNC(=O)N[C@H](C(=O)NO)c2ccccc2)cc1 | 5.99
11 | CC(C)C[C@H](NC(=O)NCCCCc1ccccc1)C(=O)NO | 5.64
12 | CSCC[C@H](NC(=O)NCCCc1ccccc1)C(=O)NO | 5.15
13 | Cc1ccc(CNC(=O)N[C@H](C(=O)NO)c2ccccc2)cc1 | 5.79
14 | O=C(NCc1ccc(F)cc1)N[C@H](C(=O)NO)c1ccccc1 | 5.30
15 | O=C(NCc1ccccc1)N[C@H](C(=O)NO)c1ccccc1 | 6.01
16 | O=C(NCCCc1ccccc1)N[C@H](C(=O)NO)c1ccccc1 | 5.66

Continued, values first:

Row | pIC50 | Compound
17 | 6.16 | CC(C)C[C@H](NC(=O)NCc1cccc(F)c1)C(=O)NO
18 | 6.18 | CC(C)C[C@H](NC(=O)NCc1cccs1)C(=O)NO
19 | 6.24 | COc1ccccc1CNC(=O)N[C@@H](CC(C)C)C(=O)NO
20 | 6.39 | Cc1ccc(CNC(=O)N[C@@H](CC(C)C)C(=O)NO)cc1
21 | 6.54 | COc1cccc(CNC(=O)N[C@@H](CC(C)C)C(=O)NO)c1
22 | 7.00 | CC(C)C[C@H](NC(=O)Nc1cccc2ccccc12)C(=O)NO
23 | 7.30 | CC(C)C[C@H](NC(=O)NCc1cccc2ccccc12)C(=O)NO

System: not listed separately
Test: Cytotoxicity against human ES2 cells assessed as cell growth inhibition rate at 5 ug/ml after 24 hrs by MTT assay
Type: cell-based
Details: read-out: GI

Row | Compound | inhibition at 24 h, 5 ug/ml [%]
24 | CC(C)C[C@H](NC(=O)NCc1cccc(F)c1)C(=O)NO | < 1
25 | COc1ccccc1CNC(=O)N[C@@H](CC(C)C)C(=O)NO | < 1
26 | Cc1ccc(CNC(=O)N[C@@H](CC(C)C)C(=O)NO)cc1 | < 1
27 | CC(C)C[C@H](NC(=O)Nc1cccc2ccccc12)C(=O)NO | < 1
28 | CC(C)C[C@H](NC(=O)NCc1cccc2ccccc12)C(=O)NO | < 1
29 | CC(C)C[C@H](NC(=O)[C@@H](O)[C@H](N)Cc1ccccc1)C(=O)O [UBENIMEX] | < 1
30 | COc1cccc(CNC(=O)N[C@@H](CC(C)C)C(=O)NO)c1 | < 1

Target: Aminopeptidase N (Homo sapiens, UniProt P15144)
Test: Inhibition of APN in human ES2 cell surface assessed as inhibition of L-Leu-p-nitroanilide substrate hydrolysis incubated for 5 mins before substrate addition by UV-Vis spectrophotometric analysis
Details: not given

Aminopeptidase N (Homo sapiens, UniProt P15144), sequence (P15144 whole entry): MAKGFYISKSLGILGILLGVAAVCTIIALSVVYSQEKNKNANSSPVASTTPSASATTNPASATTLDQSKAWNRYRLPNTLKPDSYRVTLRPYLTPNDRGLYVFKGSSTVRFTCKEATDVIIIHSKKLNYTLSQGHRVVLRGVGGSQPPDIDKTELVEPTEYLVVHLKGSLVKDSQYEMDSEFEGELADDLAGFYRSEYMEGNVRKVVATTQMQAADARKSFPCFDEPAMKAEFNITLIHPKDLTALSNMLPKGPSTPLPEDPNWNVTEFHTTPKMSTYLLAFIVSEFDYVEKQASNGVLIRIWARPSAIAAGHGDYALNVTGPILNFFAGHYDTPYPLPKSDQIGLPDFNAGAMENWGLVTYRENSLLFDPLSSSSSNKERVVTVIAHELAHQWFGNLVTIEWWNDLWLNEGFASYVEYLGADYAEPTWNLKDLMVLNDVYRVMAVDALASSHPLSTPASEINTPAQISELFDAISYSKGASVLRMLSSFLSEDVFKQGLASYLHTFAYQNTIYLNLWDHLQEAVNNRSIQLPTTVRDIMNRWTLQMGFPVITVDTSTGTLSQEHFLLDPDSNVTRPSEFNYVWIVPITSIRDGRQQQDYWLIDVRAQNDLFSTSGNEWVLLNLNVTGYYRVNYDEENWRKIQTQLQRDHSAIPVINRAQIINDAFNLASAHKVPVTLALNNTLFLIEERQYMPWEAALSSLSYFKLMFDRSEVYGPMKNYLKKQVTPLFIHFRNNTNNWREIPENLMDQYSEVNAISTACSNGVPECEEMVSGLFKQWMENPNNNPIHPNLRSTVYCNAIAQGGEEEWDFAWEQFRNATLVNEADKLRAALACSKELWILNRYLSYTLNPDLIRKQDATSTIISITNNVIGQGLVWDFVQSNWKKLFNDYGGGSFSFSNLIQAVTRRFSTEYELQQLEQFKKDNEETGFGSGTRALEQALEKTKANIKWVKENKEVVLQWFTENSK

Row | pIC50 | Compound
31 | 5.52 | CC(C)C[C@H](NC(=O)NCc1cccc(F)c1)C(=O)NO
32 | 5.96 | COc1ccccc1CNC(=O)N[C@@H](CC(C)C)C(=O)NO
33 | 5.82 | Cc1ccc(CNC(=O)N[C@@H](CC(C)C)C(=O)NO)cc1
34 | 6.32 | CC(C)C[C@H](NC(=O)Nc1cccc2ccccc12)C(=O)NO
35 | 6.38 | CC(C)C[C@H](NC(=O)NCc1cccc2ccccc12)C(=O)NO
36 | 6.10 | COc1cccc(CNC(=O)N[C@@H](CC(C)C)C(=O)NO)c1

System: B16-BL6
Test: Antiangiogenic activity against mouse B16-BL6 cells xenografted in C57BL/6 mouse assessed as decrease in number of vessels oriented towards the tumor mass at 100 mg/kg/day, ip administered for 4 days measured on day 5 by dissecting microscopic analysis
Type: functional, organism-based
Details: not given

Row | Compound | Activity
37 | CC(C)C[C@H](NC(=O)Nc1cccc2ccccc12)C(=O)NO | Active
38 | CC(C)C[C@H](NC(=O)NCc1cccc2ccccc12)C(=O)NO | Active
39 | CC(C)C[C@H](NC(=O)[C@@H](O)[C@H](N)Cc1ccccc1)C(=O)O [UBENIMEX] | Active
40 | COc1cccc(CNC(=O)N[C@@H](CC(C)C)C(=O)NO)c1 | Active

Target: 72 kDa type IV collagenase (Homo sapiens, UniProt P08253)
Test: Inhibition of recombinant MMP-2 using succinylated gelatin as substrate incubated for 10 mins before addition of substrate measured after 60 mins by UV-Vis spectrophotometric analysis
Details: not given

72 kDa type IV collagenase, sequence (P08253 whole entry): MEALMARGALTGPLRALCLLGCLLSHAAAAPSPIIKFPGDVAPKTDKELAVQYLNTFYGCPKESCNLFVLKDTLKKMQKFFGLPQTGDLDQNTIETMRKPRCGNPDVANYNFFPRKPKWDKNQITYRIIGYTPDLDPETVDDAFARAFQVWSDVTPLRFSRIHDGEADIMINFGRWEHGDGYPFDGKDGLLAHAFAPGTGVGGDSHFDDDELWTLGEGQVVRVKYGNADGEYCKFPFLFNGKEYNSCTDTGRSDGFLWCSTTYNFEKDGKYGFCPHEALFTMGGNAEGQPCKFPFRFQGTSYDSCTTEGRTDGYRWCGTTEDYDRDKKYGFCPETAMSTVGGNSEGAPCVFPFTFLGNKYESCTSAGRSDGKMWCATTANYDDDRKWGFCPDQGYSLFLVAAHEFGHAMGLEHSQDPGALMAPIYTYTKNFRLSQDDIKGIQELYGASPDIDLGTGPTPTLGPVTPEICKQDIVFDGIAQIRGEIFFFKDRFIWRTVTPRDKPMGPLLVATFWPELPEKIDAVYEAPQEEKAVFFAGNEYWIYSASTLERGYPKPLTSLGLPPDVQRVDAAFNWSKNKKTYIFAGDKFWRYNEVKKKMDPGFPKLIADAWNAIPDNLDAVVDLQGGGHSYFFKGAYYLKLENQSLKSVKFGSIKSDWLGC

Row | pIC50 | Compound
41 | < 3.00 | CC(C)C[C@H](NC(=O)NCc1cccc(F)c1)C(=O)NO
42 | < 3.00 | COc1ccccc1CNC(=O)N[C@@H](CC(C)C)C(=O)NO
43 | < 3.00 | Cc1ccc(CNC(=O)N[C@@H](CC(C)C)C(=O)NO)cc1
44 | < 3.00 | CC(C)C[C@H](NC(=O)Nc1cccc2ccccc12)C(=O)NO
45 | 3.26 | CC(C)C[C@H](NC(=O)NCc1cccc2ccccc12)C(=O)NO
46 | 3.56 | CC(C)C[C@H](NC(=O)[C@@H](O)[C@H](N)Cc1ccccc1)C(=O)O [UBENIMEX]
47 | < 3.00 | COc1cccc(CNC(=O)N[C@@H](CC(C)C)C(=O)NO)c1

System: ES2
Test: Inhibition of human ES2 cell migration at 150 uM by crystal violet staining based microscopic analysis
Type: functional
Details: not given

Row | Compound | inhibition
48 | CC(C)C[C@H](NC(=O)Nc1cccc2ccccc12)C(=O)NO | Active
49 | CC(C)C[C@H](NC(=O)NCc1cccc2ccccc12)C(=O)NO | Active
50 | CC(C)C[C@H](NC(=O)[C@@H](O)[C@H](N)Cc1ccccc1)C(=O)O [UBENIMEX] | Active
51 | COc1cccc(CNC(=O)N[C@@H](CC(C)C)C(=O)NO)c1 | Active

Target: T1, Aminopeptidase N
Test: Inhibition of mouse APN
Details: not given

Row | pKi | Compound
52 | 5.52 | CC(C)C[C@H](NC(=O)[C@@H](O)[C@H](N)Cc1ccccc1)C(=O)O [UBENIMEX]

System: ES2
Test: Inhibition of human ES2 cell invasion at 15 to 150 uM after 8 hrs by Matrigel invasion assay
Type: functional, cell-based
Details: not given

Row | Compound | inhibition
53 | CC(C)C[C@H](NC(=O)[C@@H](O)[C@H](N)Cc1ccccc1)C(=O)O [UBENIMEX] | Active

System: ES2
Test: Inhibition of human ES2 cell invasion after 8 hrs by Matrigel invasion assay
Type: functional, cell-based
Details: not given

Row | Compound | inhibition
54 | CC(C)C[C@H](NC(=O)Nc1cccc2ccccc12)C(=O)NO | Dose-dependent effect
55 | CC(C)C[C@H](NC(=O)NCc1cccc2ccccc12)C(=O)NO | Dose-dependent effect
56 | COc1cccc(CNC(=O)N[C@@H](CC(C)C)C(=O)NO)c1 | Dose-dependent effect

System: not listed separately
Test: Cytotoxicity against mouse B16-BL6 cells assessed as cell growth inhibition after 24 hrs by MTT assay
Type: cell-based
Details: not given

Row | Compound | GI50 at 24 h [µM]
57 | CC(C)C[C@H](NC(=O)Nc1cccc2ccccc12)C(=O)NO | > 500
58 | CC(C)C[C@H](NC(=O)NCc1cccc2ccccc12)C(=O)NO | > 500
59 | CC(C)C[C@H](NC(=O)[C@@H](O)[C@H](N)Cc1ccccc1)C(=O)O [UBENIMEX] | > 500
60 | COc1cccc(CNC(=O)N[C@@H](CC(C)C)C(=O)NO)c1 | > 500

System: B16-BL6
Test: Antimetastatic activity against mouse B16-BL6 cells xenografted in C57BL/6 mouse assessed as decrease in number of pulmonary metastatic colonies at 100 mg/kg/day, ip administered for 13 days measured on day 14
Type: functional, organism-based
Details: not given

Row | Compound | Activity
61 | CC(C)C[C@H](NC(=O)Nc1cccc2ccccc12)C(=O)NO | Active
62 | CC(C)C[C@H](NC(=O)NCc1cccc2ccccc12)C(=O)NO | Active
63 | COc1cccc(CNC(=O)N[C@@H](CC(C)C)C(=O)NO)c1 | Active

System: not listed separately
Test: Cytotoxicity against human ES2 cells assessed as cell growth inhibition rate at 50 ug/ml after 24 hrs by MTT assay
Type: cell-based
Details: read-out: GI

Row | Compound | inhibition at 24 h, 50 ug/ml [%]
64 | CC(C)C[C@H](NC(=O)NCc1cccc(F)c1)C(=O)NO | 2.81
65 | COc1ccccc1CNC(=O)N[C@@H](CC(C)C)C(=O)NO | 3.29
66 | Cc1ccc(CNC(=O)N[C@@H](CC(C)C)C(=O)NO)cc1 | 1.83
67 | CC(C)C[C@H](NC(=O)Nc1cccc2ccccc12)C(=O)NO | 3.63
68 | CC(C)C[C@H](NC(=O)NCc1cccc2ccccc12)C(=O)NO | 6.67
69 | CC(C)C[C@H](NC(=O)[C@@H](O)[C@H](N)Cc1ccccc1)C(=O)O [UBENIMEX] | 2.89
70 | COc1cccc(CNC(=O)N[C@@H](CC(C)C)C(=O)NO)c1 | < 1
